# In ChEMBL document CHEMBL1275533, “In vitro antibacterial activity of vertilmicin and its susceptibility to modifications by the recombinant AAC6'-APH2'' enzyme” (2008):
# Activity calls are given as the source filed them. The rule behind the calls is not given here.
# Key:
# [1] = tested on: Escherichia coli BL21(DE3); assay: Ratio of Vmax to Km for AAC(6')-APH(2'') in Escherichia coli BL21(DE3) assessed as production of free pyridine-4-thiolate relative to netilmicin
# [2] = tested on: Escherichia coli; assay: microbe, parasite or virus in culture; details: ATCC 25922, 18 h
# Description: Antibacterial activity against Escherichia coli ATCC 25922 after 18 hrs by agar dilution method
# [3] = tested on: Acinetobacter calcoaceticus; assay: Antibacterial activity against non-gentamicin-resistant Acinetobacter calcoaceticus clinical isolate assessed as susceptible isolates after 18 hrs by agar dilution method; assay type: functional
# [4] = tested on: Haemophilus influenzae; assay: Antibacterial activity against non-gentamicin-resistant Haemophilus influenzae clinical isolate assessed as susceptible isolates after 18 hrs by agar dilution method; assay type: functional, organism-based
# [5] = tested on: Serratia marcescens; assay: Antibacterial activity against non-gentamicin-resistant Serratia marcescens clinical isolate after 18 hrs by agar dilution method; assay type: functional
# [6] = tested on: Enterobacter cloacae; assay: Antibacterial activity against non-gentamicin-resistant Enterobacter cloacae clinical isolate after 18 hrs by agar dilution method; assay type: functional
# [7] = tested on: Staphylococcus epidermidis; assay: Antibacterial activity against Staphylococcus epidermidis isolate 01-55 after 18 hrs by agar dilution method; assay type: functional; details: isolate 01-55, 18 h
# [8] = tested on: Staphylococcus epidermidis; assay: Antibacterial activity against non-gentamicin-resistant Staphylococcus epidermidis clinical isolate after 18 hrs by agar dilution method; assay type: functional
# [9] = tested on: Escherichia coli BL21(DE3); assay: Phosphorylation activity of AAC(6')-APH(2'') in Escherichia coli BL21(DE3) assessed as oxidation of NADH by pyruvate kinase relative to verdamicin
# [10] = tested on: Pseudomonas sp.; assay: Antibacterial activity against gentamicin-resistant Pseudomonas spp. clinical isolate after 18 hrs by agar dilution method; assay type: functional
# [11] = tested on: Staphylococcus aureus; assay: Bactericidal activity against Staphylococcus aureus ATCC 29213 at >=1 MIC up to 8 hrs by time-kill study; assay type: functional, organism-based
# [12] = tested on: Escherichia coli BL21(DE3); assay: Acetylation activity of AAC(6')-APH(2'') in Escherichia coli BL21(DE3) assessed as production of free pyridine-4-thiolate relative to netilmicin
# [13] = tested on: Acinetobacter calcoaceticus; assay: Antibacterial activity against gentamicin-resistant Acinetobacter calcoaceticus clinical isolate after 18 hrs by agar dilution method; assay type: functional
# [14] = tested on: Klebsiella pneumoniae; assay: Antibacterial activity against non-gentamicin-resistant Klebsiella pneumoniae clinical isolate after 18 hrs by agar dilution method; assay type: functional
# [15] = tested on: Klebsiella pneumoniae; assay: Antibacterial activity against Klebsiella pneumoniae isolate 01-21 after 18 hrs by agar dilution method; assay type: functional; details: isolate 01-21, 18 h
# [16] = tested on: Escherichia coli BL21(DE3); assay: Ratio of Vmax to Km for AAC(6')-APH(2'') in Escherichia coli BL21(DE3) assessed as oxidation of NADH by pyruvate kinase relative to netilmicin
# [17] = tested on: Klebsiella aerogenes; assay: Antibacterial activity against gentamicin-resistant Enterobacter aerogenes clinical isolate after 18 hrs by agar dilution method; assay type: functional
# [18] = tested on: Staphylococcus epidermidis; assay: Bactericidal activity against Staphylococcus epidermidis isolate 01-55 at >=1 MIC up to 8 hrs by time-kill study; assay type: functional, organism-based
# [19] = tested on: Klebsiella pneumoniae; assay: Antibacterial activity against gentamicin-resistant Klebsiella pneumoniae clinical isolate after 18 hrs by agar dilution method; assay type: functional
# [20] = tested on: Pseudomonas aeruginosa; assay: Antibacterial activity against gentamicin-resistant Pseudomonas aeruginosa clinical isolate after 18 hrs by agar dilution method; assay type: functional
# [21] = tested on: Citrobacter freundii; assay: Antibacterial activity against non-gentamicin-resistant Citrobacter freundii clinical isolate assessed as susceptible isolates after 18 hrs by agar dilution method; assay type: functional
# [22] = tested on: Klebsiella pneumoniae; assay: Antibacterial activity against Klebsiella pneumoniae isolate 01-21 at 1 MIC up to 8 hrs by time-kill study; assay type: functional, organism-based
# [23] = tested on: Staphylococcus aureus; assay: Antibacterial activity against non-gentamicin-resistant Staphylococcus aureus clinical isolate after 18 hrs by agar dilution method; assay type: functional
# [24] = tested on: Providencia rettgeri; assay: Antibacterial activity against non-gentamicin-resistant Proteus rettgeri clinical isolate assessed as susceptible isolates after 18 hrs by agar dilution method; assay type: functional
# [25] = tested on: Staphylococcus aureus; assay: Antibacterial activity against Staphylococcus aureus ATCC 29213 after 18 hrs by agar dilution method; assay type: functional; details: ATCC 29213, 18 h
# [26] = tested on: Pseudomonas sp.; assay: Antibacterial activity against non-gentamicin-resistant Pseudomonas spp. clinical isolate after 18 hrs by agar dilution method; assay type: functional
# [27] = tested on: Enterococcus faecalis; assay: Antibacterial activity against gentamicin-resistant Enterococcus faecalis clinical isolate after 18 hrs by agar dilution method; assay type: functional
# [28] = tested on: Morganella morganii; assay: Antibacterial activity against non-gentamicin-resistant Morganella morganii clinical isolate assessed as susceptible isolates after 18 hrs by agar dilution method; assay type: functional
# [29] = tested on: Klebsiella pneumoniae; assay: Antibacterial activity against gentamicin-resistant Klebsiella pneumoniae clinical isolate assessed as susceptible isolates after 18 hrs by agar dilution method; assay type: functional
# [30] = tested on: Klebsiella pneumoniae; assay: Antibacterial activity against non-gentamicin-resistant Klebsiella pneumoniae clinical isolate assessed as susceptible isolates after 18 hrs by agar dilution method; assay type: functional
# [31] = tested on: Serratia marcescens; assay: Antibacterial activity against non-gentamicin-resistant Serratia marcescens clinical isolate assessed as susceptible isolates after 18 hrs by agar dilution method; assay type: functional
# [32] = tested on: Acinetobacter calcoaceticus; assay: Antibacterial activity against non-gentamicin-resistant Acinetobacter calcoaceticus clinical isolate after 18 hrs by agar dilution method; assay type: functional
# [33] = tested on: Escherichia coli; assay: Antibacterial activity against Escherichia coli ATCC 25922 at MIC up to 8 hrs by time-kill study; assay type: functional, organism-based
compound,measurement,setting,value
CCN[C@@H]1C[C@H](N)[C@@H](O[C@@H]2OC(C(C)N)=CC[C@@H]2N)[C@H](O)[C@H]1O[C@H]1OC[C@](C)(O)[C@H](NC)[C@H]1O (some centres undefined) [VERTILMICIN],Vmax/Km,[1],4.2%
same,MIC,[2],0.25 µg/mL
same,Activity,[3],93.8%
same,Activity,[4],inactive
same,MIC,[5],0.25 µg/mL
same,MIC50,[5],0.25 µg/mL
same,MIC90,[5],1 µg/mL
same,MIC50,[6],0.25 µg/mL
same,MIC90,[6],0.5 µg/mL
same,MIC,[7],0.25 µg/mL
same,MIC50,[8],0.125 µg/mL
same,MIC90,[8],1 µg/mL
same,Vmax,[9],49.8%
same,MIC50,[10],128 µg/mL
same,MIC90,[10],> 128 µg/mL
same,Activity,[11],Dose-dependent effect
same,Vmax,[12],6.5%
same,MIC50,[13],128 µg/mL
same,MIC90,[13],> 128 µg/mL
same,MIC50,[14],0.25 µg/mL
same,MIC90,[14],0.5 µg/mL
same,MIC,[15],0.25 µg/mL
same,Vmax/Km,[16],19.9%
same,MIC50,[17],16 µg/mL
same,MIC90,[17],> 128 µg/mL
same,Activity,[18],Dose-dependent effect
same,MIC50,[19],16 µg/mL
same,MIC90,[19],> 128 µg/mL
same,MIC50,[20],32 µg/mL
same,MIC90,[20],> 128 µg/mL
same,Activity,[21],90%
same,Activity,[22],Dose-dependent effect
same,MIC50,[23],0.125 µg/mL
same,MIC90,[23],2 µg/mL
same,Activity,[24],92.3%
same,MIC,[25],0.125 µg/mL
same,MIC50,[26],8 µg/mL
same,MIC90,[26],16 µg/mL
same,MIC50,[27],4 µg/mL
same,MIC90,[27],> 128 µg/mL
same,Activity,[28],100%
same,Activity,[29],32.1%
same,Activity,[30],97.6%
same,Activity,[31],100%
same,MIC50,[32],1 µg/mL
same,MIC90,[32],2 µg/mL
same,Activity,[33],Dose-dependent effect
CN[C@@H]1[C@@H](O)[C@@H](O[C@@H]2[C@@H](O)[C@H](O[C@@H]3OC(C(C)N)=CC[C@@H]3N)[C@@H](N)C[C@H]2N)OC[C@]1(C)O (some centres undefined) [VERDAMICIN],Vmax/Km,[1],4.5%
same,Activity,[3],98%
same,Activity,[4],inactive
same,MIC50,[5],0.25 µg/mL
same,MIC90,[5],0.5 µg/mL
same,MIC,[6],0.25 µg/mL
same,MIC50,[6],0.25 µg/mL
same,MIC90,[6],0.5 µg/mL
same,MIC50,[8],0.5 µg/mL
same,MIC90,[8],32 µg/mL
same,MIC50,[10],128 µg/mL
same,MIC90,[10],> 128 µg/mL
same,Vmax,[12],9.6%
same,MIC50,[13],> 128 µg/mL
same,MIC90,[13],> 128 µg/mL
same,MIC50,[14],0.25 µg/mL
same,MIC90,[14],0.5 µg/mL
same,MIC50,[17],> 128 µg/mL
same,MIC90,[17],> 128 µg/mL
same,MIC50,[19],128 µg/mL
same,MIC90,[19],> 128 µg/mL
same,MIC50,[20],> 128 µg/mL
same,MIC90,[20],> 128 µg/mL
same,Activity,[21],72.2%
same,MIC50,[23],0.125 µg/mL
same,MIC90,[23],8 µg/mL
same,Activity,[24],100%
same,MIC50,[26],2 µg/mL
same,MIC90,[26],8 µg/mL
same,MIC50,[27],128 µg/mL
same,MIC90,[27],> 128 µg/mL
same,Activity,[28],100%
same,Activity,[29],10.7%
same,Activity,[30],98.8%
same,Activity,[31],96.3%
same,MIC50,[32],0.5 µg/mL
same,MIC90,[32],2 µg/mL
